Results published in US11739053B2, “P62-ZZ chemical inhibitor” (ID4PHARMA, LLC, priority 2011, dated 2023).

Key:
[1] = system: p62 knockout OCL precursors; test: OCL formation by p62-/- mouse osteoclast precursors, TRACP stain; format: cell-based; conditions: 7 days, 50 ng/ml TNFα
Method: FIG. 7A-C: 7A. CFU-Blast colony formation. Human CD34(+) cells were cultured with p62-ZZ inhibitor #3 and 1 ng/ml of rhIL-3 IL-6 and SCF for 7 days. Data are shown as the mean±SD (n=5). FIG. 7B. Human OCL formation. Non-adherent mononuclear cells (2.5×10^7 cells/10-cm dish) derived from human bone marrow samples were cultured in α-MEM containing 10% FCS, 100 pg/ml recombinant human GM-CSF(R & D) for 7 days. Then the cells were collected and plated (cell density is 1.0×10^6 cells/nil) in α-MEM containing 20% horse serum with 1 ng/ml TNFα. Half-media changes were performed twice a week containing various concentrations of the p62-ZZ inhibitor #3. The cultures were incubated for a total of 2 weeks at 37° C. with 5% CO2 and 95% humidity. The osteoclasts were stained with the 23C6 antibody which recognizes CD51/61. Data are shown as the mean±SD (n=5). *P<0.01 compared to vehicle treated cultures. 7C. OCL formation by wild type and p62−/− mouse osteoclast precursors. Data is shown as the mean±SD (n=4). *: P<0.01 compared to no-inhibitor cultures. The effects of p62-ZZ inhibitor #3 on osteoclast formation by p62^−/− OCL precursors were examined to determine the specificity of the effects of the p62-ZZ inhibitor #3 on osteoclast precursors. CDIIb(+) mononuclear cells from wild type and p62″/_mice were used. […] OCLs were scored as TRAP positive cells containing 3 or more nuclei. […]

phospho-PKCζ = test: TNF-α induced PKCζ phosphorylation in marrow stromal cells, Western blot; format: cell-based, human or mouse; conditions: pre-treated 3 hours, 10 ng/ml TNF-α 5 min
Method: FIG. 6. The effect of p62-ZZ Inhibitors on phospho-PKCζ activation by TNFα stimulated MM patient and mouse marrow stromal cells. For assay of phospho-PKCz, cells were stimulated with 10 ng/ml of TNFα for 5 min and cell lysates were collected. The phospho PKCζ was assayed by Western blot using anti-phospho PKCz anti-body (Cell Signaling). Phospho-PKCζ is an unique downstream signal activated by interactions with the p62-ZZ domain. Therefore, we examined whether p62-ZZ inhibitor #3 blocked its phosphorylation. Marrow stromal cells derived from patients with multiple myeloma or mouse stromal cells were cultured in 10% FBS IMDM and then pre-treated with various p62-ZZ inhibitors for 3 hours. For assay of phospho-PKCζ, cells were stimulated with 10 ng/ml of TNF-a for 5 min and the cell lysates were collected. Phospho PKCζ was assayed by Western blot using an anti-phospho PKCζ anti-body (Cell Signaling). TNF-α induced PKCζ phosphorylation in stromal cells was blocked when the cells were pre-treated with p62-ZZ inhibitor #3 for 3 hours.

[2] = system: Primary human stromal cells; test: Stromal cell growth, MTT assay; format: cell-based
Method: FIG. 4A-C: 4A. Effect of p62-ZZ inhibitor #3 on myeloma cell growth. MM cell growth was assayed by MTT assay. Data are shown as mean±SD (n=5). FIG. 4B. MTT assay of CD138(+) primary myeloma cells. Data are shown as mean±SD (n=5). FIG. 4C. Effects of p62-ZZ inhibitors on human stromal cell growth. Primary human stromal cells (5×10^3/well) were cultured with 10 μM of p62-ZZ inhibitor (#1-6) containing 10% FCS in IMDM for 48 hours. Stromal cells growth was assayed by MTT assay. Data are shown as the mean±SD (n=5). *P<0.01 compared to vehicle treated culture. MM1.S (3×10^5 cells/well) or CD138 (+) (1×10^5 cells/well) primary myeloma cells were incubated in 96-well plates in the presence of RPMI-1640-10% FCS and various concentrations of p62-ZZ inhibitor #3 at 37° C. 5% CO2 for 48 h to determine the IC50 for inhibiting myeloma cell proliferation.

[3] = system: GFP-labeled human myeloma MM1.S cells; test: GFP-labeled MM1.S myeloma cell growth with/without stromal cells, fluorescence microscopy; format: cell-based; conditions: 10 μM, 72 hours
Method: FIG. 3 is a graph depicting MM cell growth inhibition. Data is shown as the mean±SD (n=5). *: P<0.01 compared to no-inhibitor cultures without stromal cells. **: P<0.01 compared to no-treatment co-cultured with stromal cells.
Compound 3 was tested for its capacity to block MM-stimulated signaling in marrow stromal cells, thereby resulting in less bone destruction and MM growth. The effects of the compound 3 on GFP-labeled MM1.S myeloma cell growth with/without stromal cells, IL-6 and VCAM-1 expression on stromal cells induced by TNF-α and OCL formation, and TNF-α induced PKCζ phosphorylation, the specific kinase enzyme activated p62-ZZ, were examined. GFP-labeled MM1.S myeloma cells or normal human CFU-GM, a source of OCL precursors, were then co-cultured with human stromal cells with the p62-ZZ inhibitor. The 10 μM of inhibitor compound 3 blocked MM cell growth by 90% compared to vehicle (0.1% DMSO). […] VCAM-1 expression and IL-6 production induced by TNF-α on stromal cells was blocked by 30% and 90% respectively compared to vehicle levels. Furthermore, TNF-α induced PKC, phosphorylation blocked was in stromal cells and MM1.S when pre-treated with this p62-ZZ inhibitory compound for 3 hours.
Primary human bone marrow stromal cells were maintained in 10% FCS-IMDM. Stromal cells (1.5×10^3 cells/well) were cultured one day prior to the start of co-culture. Green fluorescent protein (GFP)-labeled human myeloma MM1.S cells (7.5×10^3 cells/well) were then cultured with/without stromal cells in the presence or absence of the p62-ZZ inhibitors (#1-6) for 72 hours. MM cell growth was determined by fluorescence microscopy.

in vivo = conditions: mouse, iv
Method: FIG. 10A-D: 10A. Single dose acute toxicity study by Up/Down Methods. Body weights of the mice following dosing. FIG. 10B. Mean body weights of mice during multidose MTD study. Data are shown as mean±SD for 5 mice. FIG. 10C. Median body weight of mice during multidose MTD study. FIG. 10D. Plasma concentrations p62-ZZ antagonist in pilot mice after 100 mg/kg IV.
Preliminary in vivo studies of the p62-ZZ antagonist #3 were performed 5 to determine the toxicity, multiple doses MTD and plasma concentration of the antagonist given IV. For the pilot PK study the prototype p62-ZZ antagonist (compound #3) was used as an internal standard for Mass spectroscopy assays.

With `OCCNCc1ccc(OCc2ccccc2)c(OCc2ccccc2)c1` [Compound 3, 2-[[3,4-bis(phenylmethoxy)phenyl]methylamino]ethanol] the “OCL formation by p62 knockout OCL precursors” value [1] was “did not block”, the “TNF-α induced PKCζ phosphorylation in stromal cells” value (phospho-PKCζ) was “blocked” and the “toxicity to regular stromal cells” value [2] was “low toxicity”. For the same molecule, the “proliferation of stromal cells by MTT assay” value ([2]; 10 μM, 48 hours) was “did not change proliferation”, the “MM cell growth (result in words)” value ([3]; FIG. 3) was “directly blocked MM cell growth” and the “MM cell growth blocked compared to vehicle” value ([3]; vs vehicle (0.1% DMSO)) was 90%. It also gave a half-life (in vivo) of 4 h.
